Measurements published in patent publication US20140196172A1, “Organelle Targeting Nanocarriers” (Her Majesty the Queen in Right of Canada, as Repre sented …, priority 2011, published 2014).

Key:
[1] = system: chloroplasts of triticale protoplasts; assay: qRT-PCR of gfp mRNA, protoplasts transfected with pWCaadA16GFP; type: cell-based; conditions: gfp reporter construct
Excerpt: FIG. 20 is a plot showing the level of expression (fold increase, average of 4 replicates) of GFP in triticale protoplasts transfected with the pWCaadA16GFP plasmid in the presence of cTP1 (SEQ ID NO: 6), cTP2 (SEQ ID NO: 7), cTP3 (SEQ ID NO: 8), cTP4 (SEQ ID NO: 9) or cTP5 (SEQ ID NO: 10) compared to the level of expression (fold increase) of the internal control elongation factor 1a (EF1a), as measured by quantitative real time PCR of mRNA levels.
Wheat chloroplast aadA16GFP reporter plasmid (pWCaadA16GFP, FIG. 12) is a 4212 base pair wheat specific plastid transformation vector, which targets insertions into the tml-tmA inverted repeat regions of the Triticum aestivum plastid genome at nucleotides 92850-93727 and 93794-94671 (GenBank accession No. AB042240.3). A multiple cloning site is introduced following the tml target insertion sequence. The selection marker gene is an organelle codon specific aad-gfp fusion gene, which facilitates a dual selection method of spectinomycin resistance through an aadA derivative and visual detection by GFP fluorescence (GenBank accession No. ABX39486; Khan and Maliga, Nat. Biotechnol. (1999 September) 17(9): 910-5). The selection marker gene is driven by the Triticum aestivum plastid genome promoter (psbA) at nucleotides 1282-1153 (GenBank accession No. AB042240.3). The aad-gfp fusion gene is terminated with the rice psbA terminator sequence derived from chloroplast transformation vector pVSR326 nucleotides 4014-4387 (GenBank accession No. AF527485.1).
The dsDNA construct (pWMaadA16GFP for mitochondrial expression or pWCaadA16GFP for expression in chloroplasts) is combined with the mTP (for mitochondrial expression) or cTP (for expression in chloroplasts) in a final volume of 100 μl of CPW solution. For experiments using mTP1 (SEQ ID NO: 1), mTP2 (SEQ ID NO: 2), mTP3 (SEQ ID NO: 3), or mTP5 (SEQ ID NO: 5), peptides (scaled up from 100 ng, at four times the concentration needed to cause a DNA shift in the gel mobility shift assay (Table 7)) are combined with the pWMaadA16GFP construct (5 μg). For experiments using the remaining oTPs, peptides (30 μg) are combined with the appropriate dsDNA construct (1.5 μg). The mixture is incubated for 10 minutes at room temperature, then incubated with isolated triticale mesophyll protoplasts (500 μl, 10^6 protoplasts/ml, prepared as described in Example 2) for 1 h in the dark at room temperature. CPW solution (500 μl) is added and the mixture is incubated in the dark for 24 h. The cells are imaged using confocal microscopy, as described in Example 2, using MitoTracker® Orange staining to visualize mitochondria and chlorophyll autofluorescence to visualize chloroplasts.
cDNA is generated using a First Strand Synthesis kit (Invitrogen). RNA (1 μg) is added to each sample and the manufacturer's protocol for synthesis followed, with the exception that the volume of the reaction mixture is increased from 20 μl to 30 μl. A negRT sample containing all reagents but no RNA is included in the cDNA synthesis as a negative control.
Standard curves are generated for both elongation factor 1a (EF1a) (internal control) and green fluorescent protein (GFP) (test) genes. The EF1a curve is generated by pooling 6 μl of each cDNA sample (excluding the negRT control), then carrying out a serial dilution of 0.5 for 5 more dilutions. […]
Real time PCR reactions are performed using QuantiTect™ SYBR™ Green PCR Master Mix (Qiagen) in a 20 μl reaction volume. […]

[2] = system: F1112 (bovine colonic cell line); assay: Uptake of labeled peptides by F1112 cells, photometric cell imaging; type: cell-based; conditions: for Average concentration of labeled peptide measured in cells, F1112: cells exposed to labeled peptide at 17 μM; for Photometric Cell Imaging (average counts/sec) F1112: 1 hr, background about 1×10^5 counts/sec
Procedure: Caco-2 and F1112 cells are cultured in Dulbecco's Modified Eagle Medium (DMEM) containing 10% (v/v) fetal bovine serum (FBS) and 50 μg/ml gentamycin at 37° C. in a 95% humidified atmosphere containing 5% CO2. The cells are grown in Falcon™ […] 75 cm^2 cell culture flasks until they reach confluency, then are detached with 0.25% trypsin and 0.02% EDTA and washed with DMEM.
Preparations used for photometric cell imaging are prepared by adding 1000 cells to a Nunc coverglass chamber (2.5 cm^2). Cells are cultured as described above for 3 to 7 days. The cell monolayers are rinsed three times with epithelial cell saline (pH 7.4).
Varying concentrations of fluoresceinated mTPs (100 μM) are added to epithelial cell saline to obtain a final working volume of 400 μl. Final concentrations added to the Caco-2, F1112 and MG cell monolayers as described above are 17 μM, 9 μM and 4 μM. Cells are incubated with the peptides for 1 hr in the dark at 37° C. in a 95% humidified atmosphere containing 5% CO2. At the end of the incubation period, the cell monolayer is rinsed three times with epithelial cell saline and 500 μl of epithelial cell saline is added.
Uptake of labeled peptides by cells is quantified using a photometric detector/cell-imaging system (PTI). An excitation scan is run to determine if uptake has occurred as indicated by peaks at the appropriate wavelengths and if the amount changes in a dose-dependent manner compared to unlabeled cells. A time-based scan is then performed at the optimal excitation and emission wavelength to quantify total uptake, using about 20 cells/view/replicate.

Sequence	GFP expression by chloroplasts confirmed by qRT-PCR [1]	Average concentration of labeled peptide measured in cells, F1112 [2]	Photometric Cell Imaging (average counts/sec) F1112 ([2]; labeled peptide 4 μM)	Photometric Cell Imaging (average counts/sec) F1112 ([2]; labeled peptide 9 μM)	Photometric Cell Imaging (average counts/sec) F1112 ([2]; labeled peptide 17 μM)
MAALIPAIASLPRAQVEKPHPMPVSTRPGLVS (listed as Triticum aestivum) [cTP4]	GFP is expressed				
MAAWMRSLFSPLKKLWIRMH (Zea mays) [mTP2]		70 nm	450000 counts/sec	1800000 counts/sec	1700000 counts/sec
MFSYLPRYPLRAASARALVRATRPSYRSALLRYQ (listed as Triticum aestivum) [mTP1]		49 nm	330000 counts/sec	560000 counts/sec	1200000 counts/sec
MGGCVSTPKSCVGAKLR (listed as Arabidopsis thaliana) [cTP1]	GFP is expressed				
MKLLWRLILSRKW (listed as Arabidopsis thaliana) [mTP3]		53 nm	350000 counts/sec	1100000 counts/sec	1300000 counts/sec
MLFRLRRSVRLRGLLA (listed as Arabidopsis thaliana) [mTP5]		60 nm	440000 counts/sec	2000000 counts/sec	1600000 counts/sec
MQTLTASSSVSSIQRHRPHPAGRRSSSVTFS (listed as Triticum aestivum) [cTP2]	GFP is expressed				
MSSPPPLFTSCLPASSPSIRRDSTSGSVTSPLR (listed as Arabidopsis thaliana) [cTP5]	GFP is expressed				
MWWRRSRTNSLRYT (listed as Arabidopsis thaliana) [mTP4]		144 nm	250000 counts/sec	300000 counts/sec	3500000 counts/sec
